The structures appear in SMILES notation. Values joined by “and” are separate entries in the source; they are usually repeats but may differ in a detail not shown here. Identical values can stand only once.

Consider two molecules from US20090209633A1, “Treatment of Pain With Resiniferatoxin and Related Analogs” (priority 2006, published 2009).

The target in this assay is T1, cloned TRPV1 (Rattus norvegicus, UniProt O35433).
T1 construct: expressed in transfected cells; host or cells: Xenopus laevis oocytes injected with TRPV1 cRNA
The assay can be described thus: Single-channel currents in excised (outside-out) patches from oocytes expressing cloned TRPV1. The note with it: for single-channel conductance / single-channel current amplitude: excised patches, cloned TRPV1; for Po: outside-out/excised patches, RTX, capsaicin 100 nM. Format: cell-based. How it is done: Oocytes were obtained by an abdominal incision after anaesthetizing the frog by immersion in a 0.05% solution of 3-aminobenzoic acid ethyl ester (MS222). Animals were killed by a subcutaneous injection of a 2% solution of MS222 according to NIH guidelines. One day after separating the oocytes from the follicular layer, 50-70 nl TRPV1 cRNA was injected using a Drummond Nanoject (Drummond Scientific Co., Broomall, Pa., USA). Oocytes were used for recording from 3 days after the injection. Double-electrode voltage clamp was performed using a Warner amplifier (Warner Instruments, Hamden, Conn., USA). Data were digitized and stored on videotape or directly stored on the computer using a LabView interface (National Instruments, Austin, Tex., USA). Experiments were performed at 21-23° C. Oocytes were placed in a Perspex chamber superfused (5-10 ml min^−1) with Ca^2+-free Ringer solution containing (mM): NaCl 100, KCl 2.5 and Hepes 5; pH adjusted to 7.35 with NaOH. Current-voltage relationships were measured using 1-s voltage ramps from −80 to +80 mV.
For single-channel recording in cell-attached patches from DRG neurons, the bath solution contained (mM): potassium gluconate 140, KCl 2.5, MgCl2 1, Hepes 5 and EGTA 1.5; pH adjusted to 7.35 with NaOH. The patch pipettes were made from glass capillaries (Drummond, Microcaps), coated with Sylgard (Dow Corning, Midland, Mich., USA). For cell-attached patches, the patch pipettes were filled with a solution that contained (mM): sodium gluconate 140, NaCl 10, MgCl2 1, Hepes 5 and EGTA 1.5; pH adjusted to 7.35 with NaOH. While recording from cell-attached patches, in order to avoid differences in the driving force because of the differences in the membrane potential, the external NaCl was replaced by an equal amount of KCl in order to nullify the membrane potential. For outside-out patches, the pipette solution contained (mM): sodium gluconate 90, NaCl 10, BAPTA 10, Hepes 10, K2ATP2 and GTP 0.25; pH adjusted to 7.35 with NaOH. The bath solution contained (mM): sodium gluconate 100, KCl 2.5, MgCl2 1, Hepes 5 and EGTA 1.5; pH adjusted to 7.35 with NaOH. All the experiments were performed at room temperature (21-23° C.). Agar-bridge electrodes were used to avoid changes in junction potential. The currents were recorded using a WPC 100 (Warner Instruments) or Axopatch 2B (Axon Instruments, Union City, Calif., USA) patch-clamp amplifier. Data were filtered at 10 kHz (Axopatch 2B), digitized (VR-10B, Instrutech Corp.), and stored on videotapes. For the analysis of amplitude and open probability (Po), the data were filtered at 2.5 kHz (−3 db frequency with an 8-pole low-pass Bessel filter, Warner Instruments) and digitized at 5 kHz. For dwell-time analysis, the data were filtered at 10 kHz and digitized at 50 kHz.
Single-channel analysis. Single-channel current amplitude and Po were estimated from all-point current amplitude histograms (Channel 2 software kindly provided by Michael Smith, Australian National University, Can berra, Australia) and fitted to Gaussian densities (Origin, OriginLab Corp., Northampton, Mass., USA). For current-voltage relationships, the amplitudes were determined by fitting a Gaussian curve to an all-point histogram. Po was determined using unedited segments of data, which were typically 1-5 min long. For multiple channel patches, the mean Po was measured as nPo, where n is the number of channels in the patch. Chord conductance was measured at +60 or −60 mV. Slope conductance was determined by linear fits to current-voltage data between +20 and +100 mV or −20 and −100 mV.
Next we recorded single-channel currents from the cloned TRPV1 in excised patches. […] (Premkumar et al. 2002.)
Next we recorded single-channel currents using outside-out patches from oocytes expressing TRPV1.

Setting [1] is: oocytes expressing TRPV1, +60 mV.

T1 sequence (O35433 whole entry): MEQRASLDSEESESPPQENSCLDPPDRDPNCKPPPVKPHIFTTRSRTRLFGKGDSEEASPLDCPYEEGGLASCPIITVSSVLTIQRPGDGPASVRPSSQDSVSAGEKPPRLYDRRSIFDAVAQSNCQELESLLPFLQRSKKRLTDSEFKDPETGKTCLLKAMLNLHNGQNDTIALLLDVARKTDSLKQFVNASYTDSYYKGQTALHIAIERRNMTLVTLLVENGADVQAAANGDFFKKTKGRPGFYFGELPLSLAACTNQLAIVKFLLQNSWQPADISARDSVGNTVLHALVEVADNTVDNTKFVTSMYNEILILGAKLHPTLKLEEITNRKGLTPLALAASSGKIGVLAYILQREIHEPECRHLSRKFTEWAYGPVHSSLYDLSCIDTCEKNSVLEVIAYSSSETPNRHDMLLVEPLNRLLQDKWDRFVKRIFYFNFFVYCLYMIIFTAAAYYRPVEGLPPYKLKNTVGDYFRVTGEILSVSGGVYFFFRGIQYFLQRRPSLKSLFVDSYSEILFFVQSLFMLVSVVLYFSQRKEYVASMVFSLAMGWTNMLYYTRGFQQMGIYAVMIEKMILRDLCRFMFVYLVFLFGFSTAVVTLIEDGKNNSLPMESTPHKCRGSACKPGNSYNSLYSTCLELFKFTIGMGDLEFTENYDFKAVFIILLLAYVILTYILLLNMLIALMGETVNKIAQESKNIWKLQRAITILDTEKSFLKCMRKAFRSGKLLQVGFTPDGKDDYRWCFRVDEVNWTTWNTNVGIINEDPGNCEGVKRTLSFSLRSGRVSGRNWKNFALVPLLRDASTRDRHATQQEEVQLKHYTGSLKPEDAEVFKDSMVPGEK

With `C=C(C)[C@]12C[C@@H](C)[C@@]34O[C@](Cc5ccccc5)(O[C@@H]1[C@@H]3C=C(COC(=O)Cc1ccc(O)c(OC)c1)C[C@]1(O)C(=O)C(C)=C[C@@H]41)O2` [RTX, resiniferatoxin], for the setting “+60 mV”, the single-channel conductance was found to be 103.3±0.83 pS, the single-channel current amplitude was 6.19±0.05 pA and the Po is 0.88±0.03. Under setting [1], the “current amplitudes of multiple conductance states” value is 3.5 pA and 5.3 pA and 6.9 pA; the “single-channel conductance of multiple conductance states” value is 58 pS and 88 pS and 115 pS. Where the note is “−60 mV”, this molecule had a single-channel conductance of 43±2.8 pS, a single-channel current amplitude of 2.59±0.17 pA and a Po of 0.83±0.05.

With `COc1cc(CNC(=O)CCCC/C=C/C(C)C)ccc1O` [capsaicin], under “+60 mV”, the single-channel conductance was determined as 95.3±1.7 pS, the single-channel current amplitude was found to be 5.71±0.1 pA and the Po worked out at 0.4±0.03. For the same molecule, for the setting “−60 mV”, the single-channel conductance worked out at 41.8±1.3 pS, the single-channel current amplitude came out at 2.52±0.08 pA and the Po turned out to be 0.14±0.01.
